Test results: publication PMC3059997, “Exploring Indirect Sources of Human Exposure to Perfluoroalkyl Carboxylates (PFCAs): Evaluating Uptake, Elimination, and Biotransformation of Polyfluoroalkyl Phosphate Esters (PAPs) in the Rat” (Environmental Health Perspectives, 2010)

Legend:
[1] = Uptake experiment: diPAP mixture by oral gavage, analytes in whole blood; assay type: in vivo, Sprague-Dawley rats; conditions: male, Sprague-Dawley, rat, in vivo, po, diPAP gavage dose, whole blood
Method: (§1) This research was conducted under an animal use protocol approved by the University of Toronto Animal Care Committee. All animals were treated humanely and with regard for alleviation of suffering. Sprague-Dawley rats were obtained from Charles River Laboratories Inc. (Sherbrooke, QC, Canada) The animals were singly housed and exposed to a 12/12 hr light/dark cycle with food and water available ad libitum. Blood samples were collected from the saphenous vein using Microvette CB 300 vials (Sarstedt AG & Co., Montreal, QC, Canada) embedded with lithium-heparin as an anticoagulant. Whole-blood samples were stored at −20°C, and urine and feces samples were stored at 4°C.
(§2) Two groups of four 8-week-old male rats were administered a mixture of 4:2, 6:2, 8:2, and 10:2 diPAP or monoPAP, respectively, each at about 50 mg/kg, at 4 mL/kg by oral gavage without prior fasting. […] Two control male rats were administered clean vehicle at 4 mL/kg [for details, see Supplemental Material, Table 3 (doi:10.1289/ehp.1002409)].
(§3) Blood was collected from all animals 3 days before dosing to establish background contamination. For the uptake experiment, blood samples were collected at 1, 3, and 6 hr and 1, 2, 4, 7, 10, 14, 18, and 22 days after dosing. For the elimination experiment, blood samples were collected at 2, 4, and 6 hr and 1, 2, 4, 8, 11, 15, and 18 days after dosing. On the final sampling day, the animals were sacrificed by carbon dioxide asphyxiation, and about 10 mL of blood was collected by cardiac puncture into a BD Vacutainer embedded with lithium-heparin.
(§4) The compounds of interest fall into four categories: a) the diPAP and monoPAP parent compounds, b) the saturated and unsaturated fluorotelomer carboxylic acid (FTCA and FTUCA) metabolic intermediates, c) the FTOH-sulfate and FTOH-glucuronide phase II metabolites, and d) the final PFCA biotransformation products [see Supplemental Material, Table 1 (doi:10.1289/ehp.1002409)]. We analyzed these compounds in whole blood, urine, and feces samples. For full analytical details, see Supplemental Material. All PFCAs, FTCAs, FTUCAs, and phase II metabolites were quantified by internal calibration. Because internal standards were not available, monoPAPs and diPAPs were quantified by standard addition. We performed spike and recovery experments to validate the extraction and quantification techniques used (for details, see Supplemental Material).
(§5) Analyte and matrix specific limits of detection (LODs) and limits of quantification (LOQs) are provided in Supplemental Material (doi:10.1289/ehp.1002409). For the purpose of calculating means, values < LOD were assigned a value of zero, and values < LOQ but > LOD were used unaltered but are indicated by asterisks in figures and parentheses in tables. Values are presented using the arithmetic mean ± SE. Full data sets are available in Supplemental Material. […]

[2] = Elimination experiment: diPAP mixture by IV injection, analytes in whole blood; assay type: in vivo, Sprague-Dawley rats; conditions: male, Sprague-Dawley, rat, in vivo, diPAP IV dose, whole blood
Method: as §1
(§6) Two groups of four 8-week-old male rats were administered a mixture of 4:2, 6:2, 8:2, and 10:2 diPAP or monoPAP, respectively, each at about 15 mg/kg, at 2 mL/kg by intravenous (IV) injection into the lateral tail vein. The dosing vehicle was 50:50 propylene glycol:water. Two control male rats were administered clean vehicle at 2 mL/kg [for details see Supplemental Material, Table 3 (doi:10.1289/ehp.1002409)].
as §3, §4, §5

[3] = Uptake experiment: monoPAP mixture by oral gavage, analytes in whole blood; assay type: in vivo, Sprague-Dawley rats; conditions: male, Sprague-Dawley, rat, in vivo, po, monoPAP gavage dose
Method: as §1, §2, §3, §4
(§7) Analyte and matrix specific limits of detection (LODs) and limits of quantification (LOQs) are provided in Supplemental Material (doi:10.1289/ehp.1002409). For the purpose of calculating means, values < LOD were assigned a value of zero, and values < LOQ but > LOD were used unaltered but are indicated by asterisks in figures and parentheses in tables. Values are presented using the arithmetic mean ± SE. Full data sets are available in Supplemental Material.

[4] = Elimination experiment: monoPAP mixture by IV injection, analytes in whole blood; assay type: in vivo, Sprague-Dawley rats; conditions: male, Sprague-Dawley, rat, in vivo, monoPAP IV dose
Method: as §1, §6, §3, §4, §7

[5] = design: method as in Olsen et al. 2007; conditions: ref Olsen et al. 2007; cited from earlier work

Work on O=C(O)C(F)(F)C(F)(F)C(F)(F)C(F)(F)C(F)(F)C(F)(F)C(F)(F)F [PFOA, perfluorooctanoic acid] yielded a Cmax ([1]; 50 mg/kg, mean ± SE, values in parentheses < LOQ but > LOD, read-out: Cmax) of 7.2 ± 1.7 ng/g, a Tmax ([1]; 50 mg/kg, read-out: Tmax (converted)) of 96 h and a Half-life ([1]; about 50 mg/kg each, mean ± SE, read-out: Half-life (converted)) of 264 h. It also gave a Cmax ([2]; 15 mg/kg, mean ± SE, values in parentheses < LOQ but > LOD, read-out: Cmax) of 9.3 ± 2.4 ng/g, a Tmax ([2]; 15 mg/kg, read-out: Tmax (converted)) of 48 h and a Half-life ([2]; about 15 mg/kg each, mean ± SE, read-out: Half-life (converted)) of 552 h. The Tmax ([3]; 50 mg/kg, whole blood, read-out: Tmax (converted)) was 24 h, the Cmax ([3]; 50 mg/kg, whole blood, values in parentheses < LOQ but > LOD, read-out: Cmax) was 28 ± 8 ng/g and the Half-life ([3]; about 50 mg/kg each, PFCA product in whole blood, read-out: Half-life (converted)) was 240 h. The Cmax ([4]; 15 mg/kg, whole blood, read-out: Cmax) was 8.5 ± 1.4 ng/g, the Tmax ([4]; 15 mg/kg, whole blood, read-out: Tmax (converted)) was 96 h and the Half-life ([4]; about 15 mg/kg each, PFCA product in whole blood, read-out: Half-life (converted)) was 288 h. The “Human serum half-life (arithmetic)” value [5] was 4.5 years.
